In ChEMBL document CHEMBL5030556, “Selection and Identification of Novel Antibacterial Agents against Planktonic Growth and Biofilm Formation of Enterococcus faecalis” (J Med Chem, 2021):
In brackets after ≈: the same amount, converted by molar mass. Values belong to the compound of their own block, whether it stands above or below them. Activity calls are given as the source filed them. The rule behind the calls is not given here.

Assays:
[1] = Hemolytic activity against human erythrocytes at 50 uM incubated for 1 hr at 570 nm by spectrophotometry; type: ADME, tissue-based, Erythrocyte; conditions: read-out: Activity
[2] = Hemolytic activity against human erythrocytes at 200 uM incubated for 1 hr at 570 nm by spectrophotometry; type: ADME, tissue-based, Erythrocyte; conditions: read-out: Activity
[3] = tested on: Enterococcus faecalis; assay: Bacteriostatic activity against planktonic cells of Enterococcus faecalis OG1RF measured by microdilution broth assay; type: functional, organism-based
[4] = tested on: Enterococcus faecalis; assay: Antibiofilm activity against Enterococcus faecalis FB-1 assessed as inhibition of biofilm maturation measured after 24 hr; type: functional, organism-based
[5] = tested on: Enterococcus faecalis; assay: Inhibition of biofilm formation of Enterococcus faecalis FB-1 assessed as inhibitory rate of formation at 100 uM for 24 hrs measured at 570 nm by crystal violet staining based spectrophotometry; type: functional
[6] = tested on: Staphylococcus aureus; assay: Antibacterial activity against Staphylococcus aureus ATCC 29213 assessed as reduction in visible bacterial growth incubated for 16 to 20 hrs by microdilution broth assay; type: functional; conditions: time 16-20 hrs
[7] = tested on: Streptococcus agalactiae; assay: Antibacterial activity against Streptococcus agalactiae NSGC64 assessed as reduction in visible bacterial growth incubated for 16 to 20 hrs by microdilution broth assay; type: functional; conditions: time 16-20 hrs
[8] = tested on: Enterococcus faecalis; assay: Antibacterial activity against Enterococcus faecalis OG1RF assessed as reduction in visible bacterial growth incubated for 16 to 20 hrs by microdilution broth assay; type: functional; conditions: time 16-20 hrs
[9] = tested on: Staphylococcus epidermidis; assay: Antibacterial activity against Staphylococcus epidermidis ATCC 35984 assessed as reduction in visible bacterial growth incubated for 16 to 20 hrs by microdilution broth assay; type: functional; conditions: time 16-20 hrs
[10] = tested on: Enterococcus faecalis; assay: Antibiofilm activity against Enterococcus faecalis FB-1 assessed as inhibition of biofilm infection at 25 uM by fluid shear system; type: functional, organism-based
[11] = tested on: Enterococcus faecalis; assay: Bactericidal activity against Enterococcus faecalis OG1RF assessed as reduction in bacterial colonies incubated for 16 to 20 hrs by microdilution broth analysis; type: functional; conditions: time 16-20 hrs, read-out: MBC99.9
[12] = tested on: Escherichia coli; assay: Antibacterial activity against Escherichia coli […] assessed as reduction in visible bacterial growth incubated for 16 to 20 hrs by microdilution broth assay; type: functional; conditions: time 16-20 hrs
[13] = tested on: Enterococcus faecalis; assay: Antibacterial activity against Enterococcus faecalis ATCC 29212 assessed as reduction in visible bacterial growth incubated for 16 to 20 hrs by microdilution broth assay; type: functional; conditions: time 16-20 hrs
[14] = tested on: Enterococcus faecalis; assay: Antibacterial activity against Enterococcus faecalis FB-1 assessed as reduction in visible bacterial growth incubated for 16 to 20 hrs by microdilution broth assay; type: functional; conditions: time 16-20 hrs
[15] = tested on: Enterococcus faecium; assay: Antibacterial activity against Enterococcus faecium EF16M64 assessed as reduction in visible bacterial growth incubated for 16 to 20 hrs by microdilution broth assay; type: functional; conditions: time 16-20 hrs
[16] = tested on: Staphylococcus epidermidis; assay: Antibacterial activity against Staphylococcus epidermidis ATCC 12228 assessed as reduction in visible bacterial growth incubated for 16 to 20 hrs by microdilution broth assay; type: functional; conditions: time 16-20 hrs
[17] = tested on: Staphylococcus aureus; assay: Antibacterial activity against Staphylococcus aureus ATCC 35556 assessed as reduction in visible bacterial growth incubated for 16 to 20 hrs by microdilution broth assay; type: functional; conditions: time 16-20 hrs
[18] = Cytotoxicity against african green monkey Vero cells assessed as inhibition of cell growth by MTT assay; type: cell-based; conditions: chlorocebus sabaeus
[19] = tested on: Enterococcus faecalis; assay: Antimicrobial activity against Enterococcus faecalis OG1RF assessed as reduction in visible bacterial growth incubated for 16 to 20 hrs by microdilution broth assay; type: functional; conditions: time 16-20 hrs
[20] = tested on: Enterococcus faecalis; assay: Antibiofilm activity against Enterococcus faecalis FB-1 assessed as eradication of mature biofilm by semiquantitative microtiter assay; type: functional, organism-based
[21] = Inhibition of Enterococcus faecalis OG1RF YycG autophosphorylation by Kinase-Glo luminescent kinase assay
[22] = tested on: Enterococcus faecalis; assay: Antibiofilm activity against Enterococcus faecalis assessed as reduction in amount of viable biofilm-embedded bacterial cells at 50 uM measured by YTO 9/PI staining followed by confocal laser scanning microscopy; type: functional
[23] = tested on: Enterococcus faecalis; assay: Binding affinity to Enterococcus faecalis FB-1 YycG assessed as slow association and rapid dissociation measured by Octet RED96 response assay
[24] = tested on: Enterococcus faecalis; assay: Antibiofilm activity against Enterococcus faecalis assessed as fold reduction in epbOX gene expression at 25 uM incubated for 6 hrs by qRT-PCR analysis; type: functional
[25] = tested on: Enterococcus faecalis; assay: Antibiofilm activity against Enterococcus faecalis assessed as fold reduction in […] gene expression at 25 uM incubated for 6 hrs by qRT-PCR analysis; type: functional
[26] = tested on: Enterococcus faecalis; assay: Effect on initial adhesion capacity of Enterococcus faecalis assessed as attached cells at 25 uM for 6 hrs by crystal violet staining based microscopic assay (reference value: 0.412); type: functional
[27] = tested on: Enterococcus faecalis; assay: Antibacterial activity against clinical strain vancomycin-resistant Enterococcus faecalis assessed as inhibition of bacterial growth; type: functional
[28] = tested on: Enterococcus faecalis; assay: Bactericidal activity against Enterococcus faecalis OG1RF assessed as reductions in colony forming unit in presence of linezolid after 24 hrs by time-killing assay; type: functional, organism-based
[29] = tested on: Enterococcus faecalis; assay: Antibiofilm activity against Enterococcus faecalis assessed as fold reduction in sprE gene expression at 25 uM incubated for 6 hrs by qRT-PCR analysis; type: functional
[30] = tested on: Enterococcus faecalis; assay: Antibacterial activity against ATc induced Enterococcus faecalis OG1RF-asryycG silencing strain assessed as fold reduction in MIC relative to wild type; type: functional
[31] = tested on: Enterococcus faecalis; assay: Antibacterial activity against clinical strain Enterococcus faecalis assessed as inhibition of bacterial growth; type: functional
[32] = tested on: Enterococcus faecalis; assay: Antibiofilm activity against Enterococcus faecalis assessed as fold reduction in yycF gene expression at 25 uM incubated for 6 hrs by qRT-PCR analysis; type: functional
[33] = tested on: Enterococcus faecalis; assay: Bactericidal activity against Enterococcus faecalis OG1RF assessed as reductions in colony forming unit in presence of linezolid within 3 hrs by time-killing assay; type: functional, organism-based
[34] = tested on: Enterococcus faecalis; assay: Bactericidal activity against Enterococcus faecalis OG1RF assessed as reductions in colony forming unit in presence of ampicillin within 3 hrs by time-killing assay; type: functional, organism-based
[35] = tested on: Enterococcus faecalis; assay: Antibiofilm activity against Enterococcus faecalis assessed as fold reduction in fsrB gene expression at 25 uM incubated for 6 hrs by qRT-PCR analysis; type: functional
[36] = tested on: Enterococcus faecalis; assay: Antibiofilm activity against Enterococcus faecalis assessed as inhibition of biofilm at 1/2 times of MIC incubated for 24 hrs; type: functional; design: scale not given: the % may be the effect or the level left
[37] = tested on: Enterococcus faecalis; assay: Antibacterial activity against clinical strain linozelid-resistant Enterococcus faecalis assessed as inhibition of bacterial growth; type: functional
[38] = tested on: Enterococcus faecalis; assay: Bactericidal activity against Enterococcus faecalis OG1RF assessed as reductions in colony forming unit in presence of vancomycin after 24 hrs by time-killing assay; type: functional, organism-based
[39] = tested on: Enterococcus faecalis; assay: Antibiofilm activity against Enterococcus faecalis assessed as fold reduction in yycG gene expression at 25 uM incubated for 6 hrs by qRT-PCR analysis; type: functional
[40] = tested on: Enterococcus faecalis; assay: Bactericidal activity against Enterococcus faecalis OG1RF assessed as reductions in colony forming unit in presence of vancomycin within 3 hrs by time-killing assay; type: functional, organism-based
[41] = tested on: Enterococcus faecalis; assay: Bactericidal activity against Enterococcus faecalis OG1RF assessed as reductions in colony forming unit in presence of ampicillin after 24 hrs by time-killing assay; type: functional, organism-based
[42] = tested on: Enterococcus faecalis; assay: Antibiofilm activity against Enterococcus faecalis assessed as fold reduction in gelE gene expression at 25 uM incubated for 6 hrs by qRT-PCR analysis; type: functional

MIC [6]: > 200 µM | MIC [7]: > 200 µM | MIC [8]: > 200 µM | MIC [9]: > 200 µM | MIC [12]: > 200 µM | MIC [13]: > 200 µM | MIC [14]: > 200 µM | MIC [15]: > 200 µM | MIC [16]: > 200 µM | MIC [17]: > 200 µM | MIC [19]: > 200 µM | IC50 [21]: 27.4 µM
SMILES: O=C(O)COc1ccc(/C=C2/SC(=O)N(Cc3ccc(F)cc3)C2=O)cc1Br
hemolysis at 1 h, 50 µM [1]: 8.36% | hemolysis at 1 h, 200 µM [2]: 22.7% | Activity [3]: inactive | Activity [4]: Dose-Dependent Effect | inhibition at 100 µM [5]: 83.5% | Activity [10]: Active | MBC [11]: > 200 µM | CC50 [18]: > 200 µM | Activity [20]: inactive

MIC [19]: > 200 µM | IC50 [21]: 22 µM
SMILES: O=C(C1=C(O)C(=O)N(c2nnc(SCc3ccccc3)s2)C1c1ccccc1)c1cc2ccccc2o1 (centres undefined)
hemolysis at 1 h, 50 µM [1]: 4.16% | hemolysis at 1 h, 200 µM [2]: 7.01% | Activity [3]: inactive | Activity [4]: Dose-Dependent Effect | inhibition at 100 µM [5]: 72.2% | MBC [11]: > 200 µM | Activity [22]: 26.66% | CC50 [18]: > 200 µM

SMILES: CCCCCCCCCC(=O)N[C@@H](Cc1c[nH]c2ccccc12)C(=O)N[C@H](CC(N)=O)C(=O)N[C@@H](CC(=O)O)C(=O)N[C@@H]1C(=O)NCC(=O)N[C@@H](CCCN)C(=O)N[C@@H](CC(=O)O)C(=O)N[C@H](C)C(=O)N[C@@H](CC(=O)O)C(=O)NCC(=O)N[C@H](CO)C(=O)N[C@@H]([C@H](C)CC(=O)O)C(=O)N[C@@H](CC(=O)c2ccccc2N)C(=O)O[C@@H]1C
Activity [22]: 8.45%

SMILES: CC1(C)S[C@@H]2[C@H](NC(=O)[C@H](N)c3ccccc3)C(=O)N2[C@H]1C(=O)O [AMPICILLIN]
Activity [22]: 24.46%

SMILES: CCOC(=O)c1c(CN2CCN(C)CC2)n(-c2ccccc2)c2ccc(OS(=O)(=O)c3ccc(C)cc3)cc12
hemolysis at 1 h, 50 µM [1]: 24.1% | Activity [23]: Active | fold change (FC) [24]: 2 | hemolysis at 1 h, 200 µM [2]: 28.2% | fold change (FC) [25]: 2 | Activity [4]: Dose-Dependent Effect | OD [26]: 0.186 | inhibition at 100 µM [5]: 96.2% | MIC [6]: 12.5 µM (≈ 6.85 µg/mL) | MIC50 [27]: 50 µM (≈ 27.4 µg/mL) | MIC [7]: 12.5 µM (≈ 6.85 µg/mL) | Activity [28]: Active | MIC [8]: 25 µM (≈ 13.7 µg/mL) | MIC [9]: 12.5 µM (≈ 6.85 µg/mL) | Activity [10]: Active | MBC [11]: 100 µM (≈ 54.8 µg/mL) | fold change (FC) [29]: 2 | MIC [12]: > 200 µM | fold change (FC) [30]: 4 | MIC [31]: 25 µM (≈ 13.7 µg/mL) | MIC [13]: 25 µM (≈ 13.7 µg/mL) | MIC [14]: 50 µM (≈ 27.4 µg/mL) | fold change (FC) [32]: 3 | MIC [15]: 25 µM (≈ 13.7 µg/mL) | MIC [16]: 12.5 µM (≈ 6.85 µg/mL) | Activity [33]: Active | Activity [34]: Active | fold change (FC) [35]: 2 | MIC [17]: 12.5 µM (≈ 6.85 µg/mL) | Activity [36]: 74.8% | Activity [22]: 18.29% | MIC90 [37]: 100 µM (≈ 54.8 µg/mL) | Activity [38]: Active | CC50 [18]: > 200 µM | fold change (FC) [39]: 20 | Activity [40]: Active | MIC [19]: 25 µM (≈ 13.7 µg/mL) | Activity [41]: Active | Activity [20]: inactive | IC50 [21]: 42.9 µM | fold change (FC) [42]: 2
